# Reference: PubChem BioAssay AID1745844 (Carcinogenic Potency Database (CPDB), 2022)
# System: rodent lifetime carcinogenesis bioassay, tumor incidence TD50
# Test: chronic cancer bioassays in animals – CPDB, compiled studies (AID 1745844)
# Conditions: mouse, strain B6C3F1, males, inhaled
structure (smiles),measurement,setting,value
C=CC=C,TD50,"site: Harderian gland, lesion: adenocarcinoma + adenocarcinoma, bilateral, dosed 52 weeks, study length 104 weeks",88.9 mg/kg/day
same,TD50,"site: Harderian gland, lesion: adenocarcinoma + adenoma + adenocarcinoma, bilateral + adenoma, bilateral, dosed 13 weeks, study length 104 weeks",11.7 mg/kg/day
same,TD50,"site: Harderian gland, lesion: adenocarcinoma + adenoma + adenocarcinoma, bilateral + adenoma, bilateral, dosed 26 weeks, study length 104 weeks",22.7 mg/kg/day
same,TD50,"site: Harderian gland, lesion: adenocarcinoma + adenoma + adenocarcinoma, bilateral + adenoma, bilateral, dosed 52 weeks, study length 104 weeks",13.1 mg/kg/day
same,TD50,"site: Harderian gland, lesion: adenocarcinoma + adenoma + adenoma, bilateral, dosed 40 weeks, study length 104 weeks",17.5 mg/kg/day
same,TD50,"site: Harderian gland, lesion: adenocarcinoma + adenoma + adenoma, bilateral, dosed 82 weeks, study length 104 weeks",26.1 mg/kg/day
same,TD50,"site: Harderian gland, lesion: adenocarcinoma, dosed 40 weeks, study length 104 weeks",531 mg/kg/day
same,TD50,"site: Harderian gland, lesion: adenocarcinoma, dosed 82 weeks, study length 104 weeks",221 mg/kg/day
same,TD50,"site: Harderian gland, lesion: adenoma + adenoma, bilateral, dosed 13 weeks, study length 104 weeks",14.9 mg/kg/day
same,TD50,"site: Harderian gland, lesion: adenoma + adenoma, bilateral, dosed 26 weeks, study length 104 weeks",22.7 mg/kg/day
same,TD50,"site: Harderian gland, lesion: adenoma + adenoma, bilateral, dosed 40 weeks, study length 104 weeks",18 mg/kg/day
same,TD50,"site: Harderian gland, lesion: adenoma + adenoma, bilateral, dosed 52 weeks, study length 104 weeks",14.9 mg/kg/day
same,TD50,"site: Harderian gland, lesion: adenoma + adenoma, bilateral, dosed 82 weeks, study length 104 weeks",27.6 mg/kg/day
same,TD50,"site: Zymbal's gland, lesion: adenoma + carcinoma, dosed 13 weeks, study length 104 weeks",223 mg/kg/day
same,TD50,"site: Zymbal's gland, lesion: adenoma + carcinoma, dosed 26 weeks, study length 104 weeks",135 mg/kg/day
same,TD50,"site: Zymbal's gland, lesion: adenoma + carcinoma, dosed 40 weeks, study length 104 weeks",647 mg/kg/day
same,TD50,"site: Zymbal's gland, lesion: carcinoma, dosed 13 weeks, study length 104 weeks",336 mg/kg/day
same,TD50,"site: Zymbal's gland, lesion: carcinoma, dosed 26 weeks, study length 104 weeks",135 mg/kg/day
same,TD50,"site: Zymbal's gland, lesion: carcinoma, dosed 40 weeks, study length 104 weeks",625 mg/kg/day
same,TD50,"site: all sites + brain + forestomach + Harderian gland + heart + kidney + liver + lung + preputial gland, lesion: histiocytic sarcoma + malignant lymphoma, mixed type + malignant lymphoma, lymphocytic type + malignant lymphoma + olfactory lob, dosed 13 weeks, study length 104 weeks",7 mg/kg/day
same,TD50,"site: all sites + brain + forestomach + Harderian gland + heart + kidney + liver + lung + preputial gland, lesion: histiocytic sarcoma + malignant lymphoma, mixed type + malignant lymphoma, lymphocytic type + malignant lymphoma + olfactory lob, dosed 26 weeks, study length 104 weeks",12.6 mg/kg/day
same,TD50,"site: all sites + forestomach + Harderian gland + heart + kidney + liver + lung + preputial gland, lesion: histiocytic sarcoma + malignant lymphoma, histiocytic type + malignant lymphoma, mixed type + malignant lymphoma, lymphocytic, dosed 82 weeks, study length 104 weeks",10.7 mg/kg/day
same,TD50,"site: all sites + forestomach + Harderian gland + heart + kidney + liver + lung + preputial gland, lesion: histiocytic sarcoma + malignant lymphoma, mixed type + malignant lymphoma, lymphocytic type + malignant lymphoma + squamous-cell, dosed 40 weeks, study length 104 weeks",10.9 mg/kg/day
same,TD50,"site: all sites + forestomach + Harderian gland + heart + kidney + liver + lung + preputial gland, lesion: histiocytic sarcoma + malignant lymphoma, mixed type + malignant lymphoma, lymphocytic type + malignant lymphoma + squamous-cell, dosed 52 weeks, study length 104 weeks",6.12 mg/kg/day
same,TD50,"site: all sites + forestomach + heart + lung, lesion: malignant lymphoma, NOS + papilloma, NOS + squamous-cell papilloma + hemangiosarcoma + alveolar/bronchiolar adenoma + alveolar/bro, dosed 60 weeks, study length 60 weeks",28.8 mg/kg/day
same,TD50,"site: all sites, lesion: hemangioma + hemangiosarcoma, dosed 13 weeks, study length 104 weeks",16.9 mg/kg/day
same,TD50,"site: all sites, lesion: hemangioma + hemangiosarcoma, dosed 26 weeks, study length 104 weeks",17.7 mg/kg/day
same,TD50,"site: all sites, lesion: hemangioma + hemangiosarcoma, dosed 40 weeks, study length 104 weeks",17.3 mg/kg/day
same,TD50,"site: all sites, lesion: hemangioma + hemangiosarcoma, dosed 52 weeks, study length 104 weeks",11.1 mg/kg/day
same,TD50,"site: all sites, lesion: hemangioma + hemangiosarcoma, dosed 82 weeks, study length 104 weeks",38 mg/kg/day
same,TD50,"site: all sites, lesion: hemangioma, dosed 13 weeks, study length 104 weeks",45.8 mg/kg/day
same,TD50,"site: all sites, lesion: hemangioma, dosed 40 weeks, study length 104 weeks",95.2 mg/kg/day
same,TD50,"site: all sites, lesion: hemangiosarcoma, dosed 13 weeks, study length 104 weeks",21.9 mg/kg/day
same,TD50,"site: all sites, lesion: hemangiosarcoma, dosed 26 weeks, study length 104 weeks",17.7 mg/kg/day
same,TD50,"site: all sites, lesion: hemangiosarcoma, dosed 40 weeks, study length 104 weeks",20.8 mg/kg/day
same,TD50,"site: all sites, lesion: hemangiosarcoma, dosed 52 weeks, study length 104 weeks",11.9 mg/kg/day
same,TD50,"site: all sites, lesion: hemangiosarcoma, dosed 82 weeks, study length 104 weeks",45.5 mg/kg/day
same,TD50,"site: all sites, lesion: histiocytic sarcoma + malignant lymphoma, histiocytic type + malignant lymphoma, mixed type + malignant lymphoma, lymphocytic, dosed 82 weeks, study length 104 weeks",63.5 mg/kg/day
same,TD50,"site: all sites, lesion: histiocytic sarcoma + malignant lymphoma, mixed type + malignant lymphoma, lymphocytic type + malignant lymphoma, dosed 13 weeks, study length 104 weeks",26.2 mg/kg/day
same,TD50,"site: all sites, lesion: histiocytic sarcoma + malignant lymphoma, mixed type + malignant lymphoma, lymphocytic type + malignant lymphoma, dosed 26 weeks, study length 104 weeks",28.8 mg/kg/day
same,TD50,"site: all sites, lesion: histiocytic sarcoma + malignant lymphoma, mixed type + malignant lymphoma, lymphocytic type + malignant lymphoma, dosed 40 weeks, study length 104 weeks",57.1 mg/kg/day
same,TD50,"site: all sites, lesion: histiocytic sarcoma + malignant lymphoma, mixed type + malignant lymphoma, lymphocytic type + malignant lymphoma, dosed 52 weeks, study length 104 weeks",27.6 mg/kg/day
same,TD50,"site: all sites, lesion: histiocytic sarcoma, dosed 13 weeks, study length 104 weeks",91.1 mg/kg/day
same,TD50,"site: all sites, lesion: histiocytic sarcoma, dosed 26 weeks, study length 104 weeks",396 mg/kg/day
same,TD50,"site: all sites, lesion: histiocytic sarcoma, dosed 40 weeks, study length 104 weeks",128 mg/kg/day
same,TD50,"site: all sites, lesion: histiocytic sarcoma, dosed 52 weeks, study length 104 weeks",110 mg/kg/day
same,TD50,"site: all sites, lesion: histiocytic sarcoma, dosed 82 weeks, study length 104 weeks",157 mg/kg/day
same,TD50,"site: all sites, lesion: malignant lymphoma, NOS, dosed 60 weeks, study length 60 weeks",105 mg/kg/day
same,TD50,"site: all sites, lesion: malignant lymphoma, histiocytic type + malignant lymphoma, mixed type + malignant lymphoma, lymphocytic type + malignant lymph, dosed 82 weeks, study length 104 weeks",99.8 mg/kg/day
same,TD50,"site: all sites, lesion: malignant lymphoma, lymphocytic type, dosed 13 weeks, study length 104 weeks",66.8 mg/kg/day
same,TD50,"site: all sites, lesion: malignant lymphoma, lymphocytic type, dosed 26 weeks, study length 104 weeks",46 mg/kg/day
same,TD50,"site: all sites, lesion: malignant lymphoma, lymphocytic type, dosed 40 weeks, study length 104 weeks",142 mg/kg/day
same,TD50,"site: all sites, lesion: malignant lymphoma, lymphocytic type, dosed 52 weeks, study length 104 weeks",129 mg/kg/day
same,TD50,"site: all sites, lesion: malignant lymphoma, lymphocytic type, dosed 82 weeks, study length 104 weeks",157 mg/kg/day
same,TD50,"site: all sites, lesion: malignant lymphoma, mixed type + malignant lymphoma, lymphocytic type + malignant lymphoma, dosed 13 weeks, study length 104 weeks",34.9 mg/kg/day
